In PubChem BioAssay (NCI):
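Test compounds were applied to cells in 96-well plates for 48 hours at 5 doses. The concentration for 50% growth inhibition is given as GI50. TGI denotes the concentration required for complete inhibition of growth.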

Tests used:
Experiment in all cases: NCI anticancer screen, dose series, 48 h
HOP-92 NSCLC = system: HOP-92 NSCLC
OVCAR-4 ovarian = system: OVCAR-4 ovarian
SK-MEL-28 melanoma = system: SK-MEL-28 melanoma
UACC-257 melanoma = system: UACC-257 melanoma
RPMI-8226 leukemia = system: RPMI-8226 leukemia
MOLT-4 leukemia = system: MOLT-4 leukemia
MDA-MB-231 breast = system: MDA-MB-231 breast
TK-10 renal = system: TK-10 renal
SNB-78 CNS = system: SNB-78 CNS
HOP-18 NSCLC = system: HOP-18 NSCLC

Compound | GI50 (HOP-92 NSCLC) | TGI (HOP-92 NSCLC) | GI50 (OVCAR-4 ovarian) | TGI (OVCAR-4 ovarian) | GI50 (SK-MEL-28 melanoma) | TGI (SK-MEL-28 melanoma) | GI50 (UACC-257 melanoma) | TGI (UACC-257 melanoma) | GI50 (RPMI-8226 leukemia) | TGI (RPMI-8226 leukemia) | GI50 (MOLT-4 leukemia) | TGI (MOLT-4 leukemia) | GI50 (MDA-MB-231 breast) | TGI (MDA-MB-231 breast) | GI50 (TK-10 renal) | TGI (TK-10 renal) | TGI (SNB-78 CNS) | TGI (HOP-18 NSCLC)
COc1ccccc1CCN=C1NC(=O)/C(=C/c2ccc3ncccc3c2)S1 | 6.02 µM | 22.1 µM | 4.27 µM | 20.5 µM | 8.22 µM | > 25 µM | 7.52 µM | > 25 µM | 4.33 µM | 19.6 µM | 6.42 µM | 15.7 µM | 9.39 µM | > 25 µM | 4.48 µM | > 21.7 µM | – | –
c1ccc2[nH]c(-c3ccc(NN=Nc4ccncc4)cc3)nc2c1 | 91.5 µM | > 100 µM | 39.5 µM | > 100 µM | 16.6 µM | 51.6 µM | > 100 µM | > 100 µM | 6.3 µM | 38.4 µM | > 100 µM | > 100 µM | > 100 µM | > 100 µM | 52.5 µM | > 100 µM | – | –
N#C/C(=C/c1ccc[nH]1)P(=O)(O)O | – | > 100 µM | – | > 100 µM | – | > 100 µM | – | > 100 µM | – | > 100 µM | – | > 100 µM | – | – | – | > 100 µM | > 100 µM | –
CC(C)(O)CS(=O)(=O)Nc1ccc2c(c1)CCN(C(=O)COc1cccnc1)C2 | 97.5 µM | > 100 µM | > 100 µM | > 100 µM | > 100 µM | > 100 µM | > 100 µM | > 100 µM | 0.799 µM | > 100 µM | > 100 µM | > 100 µM | > 100 µM | > 100 µM | > 100 µM | > 100 µM | – | –
CC1(C)N=C(N)N=C(N)N1c1ccc(OCCCCOc2ccc(S(=O)(=O)F)cc2)c(Cl)c1 | 0.671 µM | 10.9 µM | 6.4 µM | 27.7 µM | 0.559 µM | 28.8 µM | 0.581 µM | 14.1 µM | 0.116 µM | 12 µM | 0.135 µM | 16.3 µM | 1.9 µM | 23.9 µM | 1.13 µM | 20.7 µM | – | –
Cn1c(/C=C(\C#N)c2ccccc2)nc2c(N3CCOCC3)nc(Cl)nc21 | 0.405 µM | 2.06 µM | 1.13 µM | 2.5 µM | 1.57 µM | 2.96 µM | 1.43 µM | 3.03 µM | 0.254 µM | 0.804 µM | 0.669 µM | 3.12 µM | 1.31 µM | 2.92 µM | 1.82 µM | 3.24 µM | – | –
Cc1cc2nc3c4cc(N)ccc4n(CCN(C)C)c3nc2cc1C | 0.527 µM | 5.05 µM | 1.79 µM | 9.64 µM | 2.08 µM | 5.77 µM | 1.21 µM | 5.14 µM | 0.606 µM | 4.86 µM | 0.376 µM | > 31.9 µM | 1.12 µM | 7.61 µM | 1.99 µM | 7.54 µM | – | –
O=[N+]([O-])c1nccn1CC(O)CN1CC1 (configuration not stated) | – | – | – | > 100 µM | – | > 100 µM | – | > 100 µM | – | > 100 µM | – | > 100 µM | – | – | – | > 100 µM | > 100 µM | > 100 µM
